Measured values as given in ChEMBL document CHEMBL5365534, “Discovery of a Novel Ketohexokinase Inhibitor with Improved Drug Distribution in Target Tissue for the Treatment of Fructose Metabolic Disease” (J Med Chem, 2023).
Values after ≈ are worked out from the molar mass of the structure shown.

Columns and labels:
Ketohexokinase = target: T1, Ketohexokinase (Homo sapiens, UniProt P50053)
T1 sequence (P50053 whole entry): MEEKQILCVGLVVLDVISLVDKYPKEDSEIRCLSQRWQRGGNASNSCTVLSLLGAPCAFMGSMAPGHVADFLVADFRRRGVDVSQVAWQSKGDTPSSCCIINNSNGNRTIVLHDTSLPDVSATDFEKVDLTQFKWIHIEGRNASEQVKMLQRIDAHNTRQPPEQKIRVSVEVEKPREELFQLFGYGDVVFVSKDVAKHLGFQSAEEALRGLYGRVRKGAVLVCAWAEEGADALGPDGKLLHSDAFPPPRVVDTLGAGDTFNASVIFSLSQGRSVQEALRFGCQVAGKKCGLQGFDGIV

in vitro [1] = details: human, Caco-2
physchem [2] = details: buffer, pH 7.4
in vitro [3] = details: human, Caco-2; remark: listed apart in the source
physchem [4] = assay: physchem
in vitro [5] = details: human, liver microsomes
in vitro [6] = details: rat, liver microsomes
in vitro [7] = details: dog, liver microsomes

Row | Structure (SMILES) | Kinetic_solubility | IC50 (Ketohexokinase) [nM] | Papp A→B at 2 h, 10 µM (in vitro [1]) [×10⁻⁶ cm/s] | logD (physchem [2]) | efflux ratio (in vitro [3]) | solubility kinetic (physchem [4]) [µM] | microsomal CLint at 2 h, 1 µM (in vitro [5]) [µL/min/mg] | microsomal CLint at 2 h, 1 µM (in vitro [6]) [µL/min/mg] | microsomal CLint at 2 h, 1 µM (in vitro [7]) [µL/min/mg]
1 | C[C@H]1CCN1c1nc(N2CC[C@H](CCC(=O)O)C2)cc(C(F)(F)F)n1 | Not Determined(Insoluble) | 849 |  |  |  |  |  |  | 
2 | C[C@H]1CCN1c1nc(N2CC[C@H](OCC(=O)O)C2)c2c(n1)C(F)(F)CC2 |  | 53.9 | 0.23 | -1.1 | 19.9 | > 1000 |  |  | 
3 | C[C@H]1CCN1c1nc(N2CCC3(CC3C(=O)O)C2)cc(C(F)(F)F)c1C#N (some centres not stated) |  | 108 | 16.2 | 1.73 | 1.78 | > 1000 | 4.6 | 5.6 | 
4 | C[C@H]1CCN1c1nc(N2CCC(C)(CC(=O)O)C2)cc(C(F)(F)F)c1C#N (some centres not stated) | Not Determined(Insoluble) | > 1000 |  |  |  |  |  |  | 
5 | C[C@H]1CCN1c1nc(N2C[C@H]3CC[C@H](C(=O)O)[C@H]3C2)c2c(n1)C(F)(F)CC2 (racemic) |  | 34.7 | 6.13 | 0.58 | 4.54 | > 1000 |  |  | 
6 | O=C(O)CC[C@H]1CCN(c2nc(N3CC[C@@H]3C(F)(F)F)nc3c2CCC3(F)F)C1 |  | 25.9 | 5.14 | 0.86 | 7.81 | > 1000 |  | 64.6 | 
7 | C[C@H]1CCN1c1nc(N2CC[C@H](CC(=O)O)C2)c2c(n1)C(F)(F)CC2 |  | 49 | 1.47 | 0.01 | 11.2 | 999 (≈ 352 µg/mL) |  |  | 
8 | O=C(O)CC[C@H]1CCN(c2nc(N3CC4CCCC43)nc3c2CCC3(F)F)C1 (some centres not stated) | Not Determined(Insoluble) | > 1000 |  |  |  |  |  |  | 
9 | C[C@H]1CCN1c1nc(N2CC[C@H](CCC(=O)O)C2)c2c(n1)C(F)(F)CCC2 | Not Determined(Insoluble) | 89.5 |  |  |  |  |  |  | 
10 | C[C@H]1CCN1c1nc(N2CCC3(CC(C(=O)O)C3)C2)cc(C(F)(F)F)c1C#N (some centres not stated) |  |  |  |  |  |  | 6.2 | 4.5 | 5.5
11 | C[C@H]1CCN1c1nc(N2CC(CC(=O)O)C(F)(F)C2)cc(C(F)(F)F)c1C#N (some centres not stated) |  | 108 | 10.9 | 1.48 | 2.48 | > 1000 |  |  | 
12 | C[C@H]1CCN1c1nc(N2CCC3(CC3C(=O)O)C2)cc(C(F)(F)F)n1 (some centres not stated) | Not Determined(Insoluble) | > 1000 |  |  |  |  |  |  | 
13 | C[C@H]1CCN1c1nc(N2C[C@@H](CC(=O)O)[C@H](O)C2)cc(C(F)(F)F)c1C#N (racemic) |  | 138 | 0.09 | 0.93 | 218 | 889 (≈ 342 µg/mL) |  |  | 
14 | C[C@H]1CCN1c1nc(N2C[C@H]3CC[C@H](C(=O)O)[C@H]3C2)cc(C(F)(F)F)c1C#N (racemic) |  | 21.9 | 18.3 | 2.31 | 1.13 | 230 (≈ 90.5 µg/mL) | 10.4 |  | 
